The values that follow come from patent US20210179577A1, “AROMATIC SULFONAMIDE DERIVATIVES FOR THE TREATMENT OF ISCHEMIC STROKE” (Bayer Aktiengesellschaft, priority 2017, published 2021).

Molecules are shown by their SMILES. pIC50: −log10 of the molar value. “And” between values parts separate entries of the source, which are not always exact repeats. Equal entries are not always repeated.

What all share (format): cell-based
For test [1], the target named is T1, human P2X4 (Homo sapiens, UniProt Q99571).
T1 sequence (Q99571 1-388): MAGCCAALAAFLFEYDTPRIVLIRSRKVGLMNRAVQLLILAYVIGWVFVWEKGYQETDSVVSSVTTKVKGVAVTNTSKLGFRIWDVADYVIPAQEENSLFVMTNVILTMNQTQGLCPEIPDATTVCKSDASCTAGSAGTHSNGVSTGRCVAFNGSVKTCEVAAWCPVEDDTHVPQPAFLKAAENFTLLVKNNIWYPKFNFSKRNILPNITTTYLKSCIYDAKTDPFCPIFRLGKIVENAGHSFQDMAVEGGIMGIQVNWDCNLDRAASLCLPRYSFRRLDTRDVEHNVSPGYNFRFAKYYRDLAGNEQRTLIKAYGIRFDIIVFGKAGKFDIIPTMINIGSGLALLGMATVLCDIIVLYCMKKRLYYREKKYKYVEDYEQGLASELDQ
As to the kind of experiment: Human P2X4 HEK Cell FLIPR Assay. The settings on record: HEK293 cells, agonist Bz-ATP at EC80; for Emax: percentage of maximal inhibition, read-out: Human P2X4 HEK Cells (FLIPR Assay) avg Efficacy. Further details: expressed in transfected cells; host or cells: HEK293. As to the method:
HEK293 cells stably expressing human P2X4 were plated in poly-D-lysine-coated 384-well plates at a seeding density of 30000 cells/well and incubated overnight. P2X4 function was assessed by measuring intracellular calcium changes using the calcium-chelating dye Fluo8-AM (Molecular Devices) on a fluorescent imaging plate reader (FLEX/FLIPR station; Molecular Devices). On the day of the assay, the medium was removed and the cells were incubated for 30 min at 37° C. and 5% CO2 in 30 μL of dye buffer (Hank's balanced salt solution, 10 mM HEPES, 1.8 mM CaCl2, 1 mM MgCl2, 2 mM probenecid, 5 mM D-glucose monohydrate, 5 μM Fluo8-AM, pH=7.4). Compounds diluted in probenecid buffer (Hank's balanced salt solution, 10 mM HEPES, 1.8 mM CaCl2, 1 mM MgCl2, 2 mM probenecid, 5 mM D-glucose monohydrate, pH=7.4) were added in a volume of 10 μL and allowed to incubate for 30 min at room temperature. The final assay DMSO concentration was 0.5%. The agonist, Bz-ATP (Tocris), was added in a volume of 10 μL at a concentration representing the EC80 value. The EC80 value of Bz-ATP was determined each assay day prior to compound profiling. The fluorescence was measured for an interval of 120 sec at 2 sec intervals. The excitation and emission wavelengths used to monitor fluorescence were 470-495 nm and 515-575 nm, respectively. The data was analyzed based on the increase in peak relative fluorescence units (RFU) compared to the basal fluorescence and the data was normalized to the agonist control. The compounds were tested in triplicates per plate and mean values were plotted in Excel XL-Fit to determine IC50 values, percentage of maximal inhibition and the Hill coefficients.

Test [2] deals with T2, hP2X4 (Homo sapiens, UniProt Q99571).
T2 construct: expressed in transfected cells; host or cells: HEK-293 mito-Photina, clone 2a/4
T2 sequence (Q99571 1-388): T1 sequence (Q99571 1-388)
As to the kind of experiment: Human P2X4 HEK Cell Electrophysiology Assay B (QPatch). The settings on record: ATP 5 microM, -90 mV; read-out: Human P2X4 HEK Cells (QPatch Electrophysiology) avg IC50. As to the method: Cell culture conditions: HEK-293 mito-Photina pcDNA3(neo-)/pPURO N/pcDNA3_P2RX4, clone 2a/4 (HEK-293 mito-Photina/hP2RX4) cells were cultured in EMEM Minimum Essential Medium Eagle with Earl's salts Balanced Salt Solution (BioWhittaker cat. BE12-125F) supplemented with 5 mL of 200 mM Ultraglutaminel (BioWhittaker cat. BE17-605E/U1), 5 mL of 100× Penicillin/Streptomycin (BioWhittaker cat. DE17-602E; final concentration 1%), 4 mL of 50 mg/mL G418 (Sigma cat. G8168-100 mL; final concentration 400 μg/mL), 10 μL of 10 mg/mL Puromicin (InvivoGen cat. ant-pr-1; final concentration 0.2 μg/mL) and 50 mL of Fetal Bovine Serum (Sigma cat. F7524; final concentration 10%).
Experimentalprotocol: HEK-293 cell lines are seeded 72 or 96 hours before experiment, at a concentration of 5 or 2.5 million cells, respectively onto a T225 flask. Just before the experiments cells are washed twice with D-PBS w/o Ca2+/Mg2+(Euroclone cat. ECB4004L) and detached from the flask with trypsin-EDTA (Sigma, cat. T4174 diluted 1/10). Cells are then re-suspended in the suspension solution: 25 mL EX-CELL ACF CHO medium (Sigma, cat. C5467); 0.625 mL HEPES (BioWhittaker, cat. BE17-737E); 0.25 mL of 100× Penicillin/Streptomycin (BioWhittaker, cat. DE17-602E), 0.1 mL of Soybean Trypsin Inhibitor 10 mg/mL (Sigma, cat. T6522) and placed on the QPatch 16X.
Compound preparation and storage: Compound stock solutions (10 mM; 100% DMSO; stored at −20° C.) were used. Fresh solutions from stock (1 or 3 mM, 100% DMSO) were prepared just before the experiments (0.1% final DMSO concentration).
Patch clamp analysis with QPatch16X (FIG. 1): Standard whole-cell voltage clamp experiments are performed at room temperature using the multihole technology.
For the voltage clamp experiments on hP2X4, data are sampled at 2 KHz. After establishment of the seal and the passage in the whole cell configuration, the cells are held at −90 mV and the hP2X4 current is evoked by the agonist in the absence (vehicle period, i.e. 0.1% DMSO) or in the presence of the compound under investigation at increasing concentrations; see the application protocol in FIG. 1.
Output: the maximum inward current induced by the agonist (ATP 5 microM).
The intracellular solution contained (mM) 135 CsF, 10 NaCl, 1 EGTA, 10 HEPES (pH 7.2 with CsOH) whereas the extracellular solution (mM) 145 NaCl, 4 KCl, 0.5 MgCl2, 1 CaCl2, […], 10 Glucose (pH 7.4 with NaOH).
For data collection, the Sophion software was used and the analysis was performed off-line using Excel and GraphPad Prism.
When possible, i.e. when the % of inhibition with the highest concentration tested was more than 50%, the dose-response curves data were fitted with the following equation:
[X is log of concentration; Y is normalized response (100% down to 0%, decreasing as X increases); Log IC50 same log units as X; HillSlope is unitless slope factor or hill slope]
A general note: Patch clamp records ionic current or voltage across a cell membrane.

For test [3], the target named is T3, endogenous P2X4 channels (Homo sapiens, UniProt Q99571).
T3 construct: measure calcium influx through endogenous P2X4 channels into primary human monocytes; endogenous in cells; host or cells: primary human monocytes isolated from donor PBMCs
T3 sequence (Q99571 1-388): T1 sequence (Q99571 1-388)
As to the kind of experiment: Human Monocyte P2X4 Assay (FLIPR). Particulars: primary human monocytes, 3 μM BzATP, one value per donor; for Emax: read-out: Human P2X4 Monocytes (FLIPR Assay) Efficacy for different donors; for pIC50: read-out: Human P2X4 Monocytes (FLIPR Assay) IC50 for different donors. How it is done:
The principle of the assay is to measure calcium influx through endogenous P2X4 channels into primary human monocytes, following activation by 2′,3′-O-(4-benzoyl-benzoyl)-ATP (Bz-ATP). Intracellular calcium concentration changes were measured with a Flipr™ (Molecular Devices) device using a calcium sensitive dye (Fluo-8). In primary monocytes P2X4 is located at the lysosome membrane, therefore exocytosis has to be triggered to expose P2X4 at the cellular membrane.
Human peripheral blood mononuclear cells (PBMCs) from anticoagulated blood (blood cells, BC) were isolated via density gradient centrifugation. Whole blood was diluted 1:3 with PBS. Samples of 30 mL were layered carefully on top of 15 mL Biocoll (BIOCHROM) in 50 mL centrifuge tubes (Falcon). Tubes were centrifuged at 914×g for 25 min at RT without brake. The PBMC layer was removed with a 10 mL pipette and transferred into tubes with ice-cold PBS in a total volume of 50 mL. Cells were washed twice by pelleting at 300×g at 4° C., for 10 min and for 5 min respectively. PBMCs were re-suspended in 10 mL medium (X-vivo, Biozym Scientific) and counted in a Neubauer chamber.
Monocytes were isolated by negative selection using the Monocyte isolation kit II from Miltenyi (#130-091-153) according to the instructions. Isolation should be done fast and cells and solutions should be kept on ice at any time. PBMCs in batches of 10exp8 cells were pelleted (300×g, 10 min) and re-suspended with 300 μL MACS buffer in a 50 mL Falcon tube. FcR Blocking reagent (100 μl) and Biotin-Ab (100 μl) were added, mixed and incubated on ice for 10 min. MACS buffer (300 μL) and anti-Biotin Micro-beads (100 μL) were added, mixed and incubated on ice for 15 min. Cells were washed by pelleting (300×g for 10 min) and re-suspended in 500 μL MACS buffer. For each batch one separation column was placed in the MACS separator and rinsed with 3 mL MACS buffer. The cell suspension was added to the column, followed by 3×3 mL MACS buffer for washing, and the eluent containing the monocytes was collected. Cells were pelleted (300×g for 10 min), re-suspended in X-vivo medium and counted. Monocytes were seeded into fibronectin-coated micro-plates (384-well, black, flat transparent bottom; Corning #3848) at a density of 30,000 cells/well in 50 μL, and cultivated over night (37° C., 5% CO2).
Test substances were dissolved in 100% DMSO at a stock concentration of 10 mM and stored at −20° C. in aliquots. Serial dilutions (2×) were prepared in DMSO and diluted 500× with assay buffer to generate the antagonist plate. In the Flipr measurement, 10 μL per well were transferred (4× dilution) and a final top concentrations of 5 μM and 0.05% DMSO were obtained in the assay. Agonist BzATP was stored at 10 mM in aliquots and diluted to an intermediate concentration of 15 μM to generate the agonist plate. In the Flipr measurement, 10 μL per well were transferred (5× dilution) so that a final assay concentration of 3 μM was obtained.
For the experiment, the medium of the cell plate was discarded manually and 70 μL/well loading buffer was added and incubated for 1 h (37° C., 5% CO2). Loading buffer contained HBSS (w/o calcium/magnesium), 10 mM Hepes pH 7.4, 5 μM Fluo-8 (AM) (Tebu-bio) and 50 mM methylamine (Sigma) to trigger exocytosis. Loading buffer was discarded manually and 30 μL/well low-calcium assay buffer (5 mM KCl, 145 mM NaCl, 0.5 mM CaCl2), 13 mM glucose, 10 mM Hepes pH 7.4) was added. The antagonist plate was transferred (10 μL/well) and after 15 min at RT the agonist plate (10 μL/well) was transferred.
Agonist addition was recorded for 240 seconds after a 10 second baseline. For analysis, a baseline correction was applied, and the maximum of the curve was extracted. Data were normalized towards 0% inhibition (signal at 3 μM BzATP) and 100% inhibition (absence of BzATP stimulation) and fitted with a four-parameter sigmoidal inhibition curve using Prism Graph Pad to obtain IC50 values.

One may read the pIC50 as the negative decadic logarithm of the IC50, by convention in mol/L. `NS(=O)(=O)c1cc(NC(=O)Cc2ccccc2F)ccc1-n1cc(C(F)(F)F)cn1` [Example 20, 2-(2-Fluorophenyl)-N-{3-sulfamoyl-4-[4-(trifluoromethyl)-1H-pyrazol-1-yl]phenyl}-acetamide]: the negative logarithm of the IC50 (pIC50) in test [1] was 6.85; in test [2], 6.71.

`NS(=O)(=O)c1cc(NC(=O)Cc2ccccc2Cl)ccc1-n1cnc(Cl)n1` [Example 24, 2-(2-Chlorophenyl)-N-[4-(3-chloro-1H-1,2,4-triazol-1-yl)-3-sulfamoylphenyl]-acetamide]: the pIC50 in test [1] is 7.35; in test [3], 6.85 and 7.47 and 7.04. Besides, the Emax in test [3] came out at 79%.

For `NS(=O)(=O)c1cc(NC(=O)Cc2ccccc2Cl)ccc1-n1cc(Cl)cn1` [Example 25, 2-(2-Chlorophenyl)-N-[4-(4-chloro-1H-pyrazol-1-yl)-3-sulfamoylphenyl]acetamide], the values for the negative-log IC50 (pIC50) in test [1] and in test [2] were 7.59 and 6.65, respectively.

Regarding `NS(=O)(=O)c1cc(NC(=O)Cc2ccccc2Cl)ccc1-n1cc(Br)cn1` [Example 28, N-[4-(4-Bromo-1H-pyrazol-1-yl)-3-sulfamoylphenyl]-2-(2-chlorophenyl)acetamide], in test [1], the pIC50 was 7.51 and the Emax came out at 90%. Moreover, the negative logarithm of the IC50 (pIC50) in test [3] was 7.11 and 6.79.

Consider `COc1ccc(CC(=O)Nc2ccc(-n3cc(Cl)cn3)c(S(N)(=O)=O)c2)cc1` [Example 170, N-[4-(4-Chloro-1H-pyrazol-1-yl)-3-sulfamoylphenyl]-2-(4-methoxyphenyl)acetamide], for which the pIC50 was 6.90 in test [1]; 6.52 and 6.74 and 6.96 in test [3]. The results for the Emax in test [1] and in test [3] were 70% and 60%, respectively.

On to `NS(=O)(=O)c1cc(NC(=O)Cc2ccccc2F)cnc1-c1cnn(C(F)F)c1` [Example 321, N-{6-[1-(Difluoromethyl)-1H-pyrazol-4-yl]-5-sulfamoylpyridin-3-yl}-2-(2-fluorophenyl)acetamide], for which the values for the pIC50 in test [1] and in test [2] were 7.06 and 6.64, respectively.

With `NS(=O)(=O)c1cc(NC(=O)Cc2ccccc2Cl)ccc1-c1cncc(C(F)(F)F)c1` [Example 331, 2-(2-Chlorophenyl)-N-{3-sulfamoyl-4-[5-(trifluoromethyl)pyridin-3-yl]phenyl}-acetamide], the pIC50 in test [1] was 7.60; in test [2], 6.81.

In the case of `NS(=O)(=O)c1cc(NC(=O)Cc2ccccc2Cl)cnc1-n1cc(Cl)cn1` [Example 387, 2-(2-Chlorophenyl)-N-[6-(4-chloro-1H-pyrazol-1-yl)-5-sulfamoylpyridin-3-yl]acetamide], the pIC50 in test [1] was 7.47. In test [3], the Emax turned out to be 35%; the pIC50 was 6.91 and 6.98.
